Results published in patent US6420313B1, “Thienylalkylamino-1,3,5-triazines and the use thereof as herbicides” (Bayer Aktiengesellschaft, priority 1998, dated 2002).

Tests used:
Type in all cases: in vivo
[1] = system: Viola; test: Pre-emergence test/greenhouse, Viola; settings: after three weeks
Procedure: (§1) Solvent: 5 parts by weight of acetone
(§2) Emulsifier: 1 part by weight of alkylaryl polyglycol ether
(§3) To produce a suitable preparation of active compound, 1 part by weight of active compound is mixed with the stated amount of solvent, the stated amount of emulsifier is added and the concentrate is diluted with water to the desired concentration.
(§4) Seeds of the test plants are sown in normal soil. After about 24 hours, the soil is sprayed with the preparation of active compound such that the particular amount of active compound desired is applied per unit area. The concentration of the spray liquor is chosen so that the particular amount of active compound desired is applied in 1000 liters of water per hectare.
(§5) After three weeks, the degree of damage to the plants is rated in % damage in comparison to the development of the untreated control.
(§6) 0%=no effect (like untreated control)

[2] = system: Solanum; test: Pre-emergence test/greenhouse, Solanum; settings: 500 g of ai./ha, after three weeks
Procedure: as §1, §2, §3, §4, §5, §6

[3] = system: Digitaria; test: Pre-emergence test/greenhouse, Digitaria; settings: 500 g of ai./ha, after three weeks
Procedure: as §1, §2, §3, §4, §5, §6

[4] = system: Veronica; test: Pre-emergence test/greenhouse, Veronica; settings: 504 h, 500 g of ai./ha, after three weeks, read-out: degree of damage, Veronica
Procedure: as §1, §2, §3, §4, §5, §6

[5] = system: Chenopodium; test: Pre-emergence test/greenhouse, Chenopodium; settings: 500 g of ai./ha, after three weeks
Procedure: as §1, §2, §3, §4, §5, §6

[6] = system: Matricaria; test: Pre-emergence test/greenhouse, Matricaria; settings: 500 g of ai./ha, after three weeks
Procedure: as §1, §2, §3, §4, §5, §6

[7] = system: wheat; test: Pre-emergence test/greenhouse, wheat; settings: 500 g of ai./ha, after three weeks
Procedure: as §1, §2, §3, §4, §5, §6

[8] = system: maize; test: Pre-emergence test/greenhouse, maize; settings: after three weeks
Procedure: as §1, §2, §3, §4, §5, §6

[9] = system: Viola; test: Post-emergence test/greenhouse, Viola; settings: after three weeks
Procedure: as §1, §2, §3
(§7) Test plants of a height of 5-15 cm are sprayed with the preparation of active compound such that the particular amounts of active compound desired are applied per unit area. The concentration of the spray liquor is chosen so that the particular amounts of active compound desired are applied in 1000 l of water/ha.
as §5, §6

[10] = system: Datura; test: Post-emergence test/greenhouse, Datura; settings: after three weeks
Procedure: as §1, §2, §3, §7, §5, §6

[11] = system: crop plants, such as, for example, maize, barley and wheat; test: Post-emergence test, tolerance by crop plants; settings: result in words
Procedure: as §1, §2, §3, §7, §5, §6

[12] = system: wheat; test: Post-emergence test/greenhouse, wheat; settings: after three weeks
Procedure: as §1, §2, §3, §7, §5, §6

[13] = system: Ipomoea; test: Post-emergence test/greenhouse, Ipomoea; settings: after three weeks
Procedure: as §1, §2, §3, §7, §5, §6

[14] = system: Solanum; test: Post-emergence test/greenhouse, Solanum; settings: after three weeks
Procedure: as §1, §2, §3, §7, §5, §6

[15] = system: weeds; test: Post-emergence test, activity against weeds; settings: result in words
Procedure: as §1, §2, §3, §7, §5, §6

[16] = system: barley; test: Post-emergence test/greenhouse, barley; settings: after three weeks
Procedure: as §1, §2, §3, §7, §5, §6

[17] = system: Setaria; test: Pre-emergence test/greenhouse, Setaria; settings: 500 g of ai./ha, after three weeks
Procedure: as §1, §2, §3, §4, §5, §6

[18] = system: soya; test: Pre-emergence test/greenhouse, soya; settings: 500 g of ai./ha, after three weeks
Procedure: as §1, §2, §3, §4, §5, §6

[19] = system: Sinapis; test: Pre-emergence test/greenhouse, Sinapis; settings: 1000 g of ai./ha, after three weeks
Procedure: as §1, §2, §3, §4, §5, §6

[20] = system: Alopecurus; test: Pre-emergence test/greenhouse, Alopecurus; settings: 1000 g of ai./ha, after three weeks
Procedure: as §1, §2, §3, §4, §5, §6

[21] = system: Amaranthus; test: Pre-emergence test/greenhouse, Amaranthus; settings: after three weeks
Procedure: as §1, §2, §3, §4, §5, §6

[22] = system: crop plants, such as, for example, cotton, maize, wheat and barley; test: Pre-emergence test, tolerance by crop plants; settings: result in words
Procedure: as §1, §2, §3, §4, §5, §6

[23] = system: weeds; test: Pre-emergence test, activity against weeds; settings: result in words
Procedure: as §1, §2, §3, §4, §5, §6

CC(CCCc1cccs1)Nc1nc(N)nc(C(C)(C)F)n1 (stereo not drawn) [drawing 245]
degree of damage, Viola ([1]; 1000 g of ai./ha): 100%

CCC(CCc1ccc(Br)s1)Nc1nc(N)nc(C(C)F)n1 (stereo not drawn) [drawing 236]
degree of damage, Solanum [2]: 100%
degree of damage, Digitaria [3]: 100%
pest or weed control at 500 g/ha [4]: 100%
degree of damage, Chenopodium [5]: 100%

CCC(CCc1cc(C)sc1C)Nc1nc(NC(C)=O)nc(C(C)(C)F)n1 (stereo not drawn) [drawing 254]
degree of damage, Matricaria [6]: 95%
degree of damage, Viola ([1]; 500 g of ai./ha): 100%

CCC(CCc1ccc(Br)s1)Nc1nc(N)nc(C(C)(C)F)n1 (stereo not drawn) [drawing 227]
degree of damage, wheat [7]: 0%
degree of damage, maize ([8]; 500 g of ai./ha): 0%

CCC(CCc1cc(Br)cs1)Nc1nc(N)nc(C(C)(C)F)n1 (racemic) [Example 2]
degree of damage, Viola ([9]; 125 g of ai./ha): 95%
degree of damage, Datura ([10]; 125 g of ai./ha): 95%
tolerance by crop plants [11]: tolerated well
degree of damage, wheat ([12]; 125 g of ai./ha): 0%
degree of damage, Ipomoea ([13]; 125 g of ai./ha): 95%
degree of damage, Solanum ([14]; 125 g of ai./ha): 100%
activity against weeds [15]: strong activity against weeds
degree of damage, barley ([16]; 125 g of ai./ha): 0%

CCC(CCc1cc(Br)cs1)Nc1nc(NC(C)=O)nc(C(C)(C)F)n1 (stereo not drawn) [drawing 249]
degree of damage, Setaria [17]: 95%
degree of damage, Viola ([1]; 500 g of ai./ha): 100%

CCC(CCc1sccc1Br)Nc1nc(N)nc(C(C)F)n1 (stereo not drawn) [drawing 241]
degree of damage, Solanum [2]: 100%
degree of damage, Digitaria [3]: 100%
pest or weed control at 500 g/ha [4]: 100%

CCC(CCc1cc(Br)cs1)Nc1nc(NC(C)=O)nc(C(C)F)n1 (stereo not drawn) [drawing 238]
pest or weed control at 500 g/ha [4]: 100%
degree of damage, Chenopodium [5]: 100%

CCC(CCc1cc(Br)cs1)Nc1nc(NC(C)=O)nc(C(C)(C)F)n1 (stereo not drawn) [drawing 239]
degree of damage, Solanum [2]: 100%
degree of damage, Digitaria [3]: 100%
pest or weed control at 500 g/ha [4]: 100%
degree of damage, Chenopodium [5]: 100%

CCC(CCc1cc(C)sc1C)Nc1nc(NC(C)=O)nc(C(C)(C)F)n1 (stereo not drawn) [drawing 244]
pest or weed control at 500 g/ha [4]: 100%

CCC(CCc1cc(C)sc1C)Nc1nc(N)nc(C(C)F)n1 (stereo not drawn) [drawing 263]
degree of damage, soya [18]: 0%

CCC(CCc1ccc(Br)s1)Nc1nc(N)nc(C(C)(C)F)n1 (stereo not drawn) [drawing 247]
degree of damage, Viola ([1]; 500 g of ai./ha): 100%

CCC(CCc1ccc(Br)s1)Nc1nc(N)nc(C(C)F)n1 (stereo not drawn) [drawing 246]
degree of damage, Viola ([1]; 500 g of ai./ha): 100%

CCC(CCc1cc(C)sc1C)Nc1nc(NC(C)=O)nc(C(C)(C)F)n1 (stereo not drawn) [drawing 234]
degree of damage, wheat [7]: 0%
degree of damage, maize ([8]; 500 g of ai./ha): 0%

CCC(CCc1cc(C)sc1C)Nc1nc(N)nc(C(C)F)n1 (stereo not drawn) [drawing 243]
degree of damage, Solanum [2]: 100%
degree of damage, Digitaria [3]: 100%
pest or weed control at 500 g/ha [4]: 100%

CC(CCCc1cccs1)Nc1nc(N)nc(C(C)(C)F)n1 (stereo not drawn) [drawing 225]
degree of damage, Sinapis [19]: 90%
degree of damage, Alopecurus [20]: 80%
degree of damage, maize ([8]; 1000 g of ai./ha): 0%
degree of damage, Amaranthus ([21]; 1000 g of ai./ha): 95%

CCC(CCc1cc(C)sc1C)Nc1nc(N)nc(C(C)F)n1 (stereo not drawn) [drawing 233]
degree of damage, wheat [7]: 0%
degree of damage, maize ([8]; 500 g of ai./ha): 0%
degree of damage, Amaranthus ([21]; 500 g of ai./ha): 100%

CCC(CCc1ccc(Br)s1)Nc1nc(N)nc(C(C)(C)F)n1 (racemic) [Example 5]
degree of damage, Viola ([9]; 500 g of ai./ha): 95%
degree of damage, Datura ([10]; 500 g of ai./ha): 100%
tolerance by crop plants [22]: largely tolerated well
tolerance by crop plants [11]: tolerated well
degree of damage, wheat ([12]; 500 g of ai./ha): 0%
degree of damage, Ipomoea ([13]; 500 g of ai./ha): 95%
degree of damage, Solanum ([14]; 500 g of ai./ha): 100%
activity against weeds [15]: strong activity against weeds
activity against weeds [23]: strong activity against weeds
degree of damage, barley ([16]; 500 g of ai./ha): 0%
